Assay results from US20190084900A1, “ISOTOPICALLY MODIFIED COMPOSITION AND THERAPEUTIC USES THEREOF” (RETROTOPE, INC., priority 2016, published 2019).
Entries after “also recorded” stand apart in the source; their conditions may differ. Where no end group is shown, it is not given here.

What was measured:
[1] = In vitro peptide aging: hydrolysis of the succinimide intermediate to isoaspartyl vs normal aspartyl peptide (HPLC); type: physicochemical; conditions: for average relative amount of isoaspartyl-containing peptide (isoAsp/(isoAsp+Asp)): samples aged at 37° C. for at least 24 h, pH 7.4
Method: Both isoaspartyl- and normal aspartyl-containing peptides arose from spontaneous deamidation of the deuterated asparaginyl residue upon incubation at pH 7.4 and 37° C.

[2] = In vitro peptide aging: racemization, D-aspartate quantified in acid hydrolysates and rate constants fitted; type: physicochemical; conditions: for Asn/Asp/isoAsp residues racemized to the D-configuration by 4 days: 4 days of aging; for racemization rate constant of the succinimide: least squares fit of modeled D-Asx accumulation to measured values; for slope of racemization line (D-aspartate fraction versus time): deamidated peptides
Method: First, a 10 μL aliquot (3.27 nmol) was removed from the aged sample and dried in a small glass test tube. These tubes were placed in a hydrolysis vial and 300 μL of 6 M hydrochloric acid was added to the vial but not directly into the sample tubes. The vial was capped with a Teflon stopcock, and then was flushed with nitrogen and sealed under vacuum using a PicoTag Work Station (Waters). This method allows only acid vapor to contact the peptide, minimizing contamination with exogenous aspartic acid. Hydrolysis proceeded at 110° C. for the relatively short time of 3 h, which is long enough to release most of the asparaginyl/aspartyl residues from the peptide, while minimizing acid catalyzed racemization (Brunauer and Clarke 1986). D-Aspartate and L-aspartate in the hydrolysates were then modified with o-phthalaldehyde and N-acetyl-L-cysteine to make fluorescent diasteriomers and quantitated using reverse phase HPLC with fluorometric analysis (Aswad 1984), as modified by Warmack et al. 2016.
To get an estimate of the racemization rate constants, the rate constants determined by Geiger and Clarke (1987) for a peptide of the same sequence was used but only with protonated asparagine using the following equations, where each k value has the units of min^−1: […]
At time zero, the l-asparaginyl-containing peptide is set to a quantity of 1.0, and all of the degradation products are considered to have a quantity of 0. The equations are then solved to give the quantities of the peptides present after 1 min, and these quantities are then used to solve the peptides for the next minute. Using Microsoft Excel, these calculations were repeated until the amount of each peptide present after 20.6 days was determined.
To investigate the effect of asparagine residue deuteration on racemization, the peptides were aged at 37° C. and pH 7.4 as described above, and the quantity of D-aspartate determined following acid hydrolysis. While breaking the peptide bonds to release free amino acids, acid hydrolysis also converts asparaginyl, succinimidyl, and isoaspartyl residues into free aspartic acid. […] The accumulation of D-Asx residues (D-Asp, D-isoAsp, and D-succinimide) was modeled using the rate constants as described in the “Materials and methods” section to fit the data points using the values obtained by Geiger and Clarke (1987) and maximizing the fit by varying the rate constant for succinimide racemization.
VYPNGA containing either protiated or deuterated asparagine was incubated for various times at 37° C. and pH 7.4 and then acid hydrolyzed. The amount of d-aspartate and l-aspartate in the hydrolysates was quantified following derivatization with ortho-phthalaldehyde and N-acetyl-1-cysteine and separation of the resulting fluorescent diastereomers by reverse-phase HPLC, and graphed as the fraction of d-aspartate relative to the total aspartate (open circles). […] The lines were obtained by computer simulation of the reactions involved in deamidation of asparaginyl residues starting with previously published kinetic constants (Geiger and Clarke 1987), and varying the racemization rate of the succinimide intermediate to give a best-fit line as determined by least squares analysis.

[3] = In vitro peptide aging: deamidation of the asparaginyl residue, by reverse-phase HPLC with UV at 210 nm; conditions: pH 7.4, 37° C.
Method: (§1) Deuterated peptide VYPNGA and the protonated control peptide were dissolved in 0.1 M sodium phosphate, pH 7.44 at 23° C. These solutions were sterilized by passing them through 0.2 μm pore syringe filters (Fisher), and 50 μL aliquots containing 40 nmol of peptide were placed in 200 μL PCR tubes, which were incubated at 37° C. for various times up to 20.6 days. At this temperature, the pH of the phosphate buffer is very close to 7.40. At the end of the incubations, 4.5 μL of 1 M hydrochloric acid was added to each tube, lowering the pH to about 4 to minimize any additional deamidation of the asparaginyl residue. These aged samples were then stored at −20° C. prior to analysis by HPLC.
(§2) Deuterated and non-deuterated VYPNGA were aged in vitro in 0.1 M sodium phosphate at physiological pH and temperature. The rate of deamidation of the asparaginyl residue was determined by separating the peptide from its degradation products using reverse phase HPLC and measuring the UV absorbance at 210 nm using the approach of Geiger and Clarke, supra.
(§3) The l- and d-forms of these peptides were not separated under these conditions. These HPLC runs were done with a linear gradient from 100% buffer A (0.1% trifluoroacetic acid in water) to 86% buffer A/14% buffer B (0.1% trifluoroacetic acid, 0.9% water, 99% acetonitrile) in 28 min.
(§4) The relative quantity of asparagine-containing peptide remaining (open circles) was quantified by UV absorbance at 210 nm during separation of the peptides by HPLC using a reverse phase C18 column as shown in FIG. 2. There were 24 data points in each panel though some were concealed due to overlap, combined from two independent aging experiments. The line in each panel was fit to the data points using the first order reaction equation [A]=[A]0e−kt and least squares analysis.

[4] = Stephenson and Clarke; cited from earlier work
[5] = Geiger and Clarke 1987; cited from earlier work
physchem = conditions: buffer, pH 7.4
Method: as §1, §2, §3, §4

[6] = between 9 and 22 days of incubation

Substance	increase in production of normal aspartyl-containing peptide upon hydrolysis of the succinimide ring ([1]; deuterated versus protiated succinimide)	tendency of the succinimide to open to the isoaspartyl configuration / effect on succinimide hydrolysis ([1]; deuterated versus protonated succinimide)	average relative amount of isoaspartyl-containing peptide (isoAsp/(isoAsp+Asp)) [1]	racemization rate constant relative to protiated peptide ([2]; 37° C., pH 7.4)	Asn/Asp/isoAsp residues racemized to the D-configuration by 4 days ([2]; 37° C., pH 7.4) [%]	aspartyl/isoaspartyl/succinimidyl residues racemized to the D-configuration after 21 days ([2]; 37° C., pH 7.4, 21 days of incubation) [%]	racemization rate constant of the succinimide ([2]; 37° C., pH 7.4) [min⁻¹]	succinimides that have lost the deuterium from the alpha carbon ([2]; 21 days of incubation, 2×1.49%) [%]	deamidated peptide still deuterated on the alpha carbon ([2]; after incubation, 9 to 22 days)	rate of racemization of l-aspartyl/l-isoaspartyl residues relative to protiated [2, 6]	slope of racemization line (D-aspartate fraction versus time) [2, 6]	accumulation of d-aspartyl and d-isoaspartyl forms / rate of D-aspartate formation relative to protiated peptide ([2]; pH 7.4, 37° C., up to 20 day incubation)	asparaginyl residues deamidated after 6 days [3]	asparaginyl residues deamidated after three days [3] [%]	effect of deuterium atoms on rate of deamidation / succinimide formation ([3]; versus protiated peptide)	racemization rate constant relative to that previously measured (Geiger and Clarke) ([2]; higher than the literature value)	rate of racemization of protiated peptide relative to deuterated peptide ([2]; within the first day of aging under physiological conditions) [times]	succinimide formation of Asn residue in VYPNGA relative to aspartyl residue in VYPDGA [4]	L-isoAsp/(L-isoAsp+L-Asp) previously reported [5]	half-life at 800 µM (physchem) [h]
VYPNGA [deuterated peptide]	about 2.3%	slightly less likely to open to the isoaspartyl configuration; also recorded: only a small effect	0.770	almost five-fold lower	1	1.49	7.4e-05	2.98	over 97%	about fourfold slower	about 1.70×10^−4 day^−1	much slower rate; also recorded: decreased more than five-fold; also recorded: five-fold decreased rate; also recorded: much more resistant to racemization	about 95%	80	little effect; also recorded: unchanged; also recorded: no effect	–	–	–	–	–
VYPNGA [protiated peptide, L-Val-L-Tyr-L-Pro-L-Asn-Gly-L-Ala, reference compound]	–	–	0.793	–	5	–	0.00034	–	–	–	0.000677 day⁻¹	–	about 95%	80	–	about 1.14 fold	3.65	about 37 times	0.785	32.4
